# Assay results as given in patent publication US5432165A, “Methods for the treatment of infection caused by Hepatitis B virus (HBV)” (priority 1992, dated 1995).
# “Also recorded” adds a separate entry of the source.
# Assays:
# [1] = Safety of oral FIAU in HIV-infected patients with chronic hepatitis B
# Description: Cohorts of five HIV-infected patients with chronic hepatitis B were studied at the tolerated doses. Plasma levels of FIAU and its major deiodinated metabolite FAU were determined two hours after dosing (peak levels) and just prior to dosing (trough levels) following the initial dose of FIAU and again on Days 3, 7, and 14 in order to make estimates of pharmacokinetic parameters including accumulation of drug or principal metabolite.
# (§1) This study is an open label, uncontrolled trial. […] Tolerated doses could be studied in an additional five patient cohort of chronic hepatitis B patients, who were potentially more at risk of side effects. A month of post-treatment follow-up was provided for the hepatitis cohorts due to the known propensity of this disease to "flare" after therapy.
# Additionally, all patients had to have completed the screening tests within four weeks of starting therapy, except for diagnostic HSV, VZV or CMV cultures. Those enrolled into the five patient cohorts of chronic hepatitis B patients had the same entry requirements, except that they had to have a history of chronic hepatitis B and be surface antigen positive. Liver function tests (AST, ALT, GGT, and bilirubin) could be Grade 2 or less at study entry for these patients. Patients receiving pentamidine aerosol for prophylaxis of recurrent Pneumocystis pneumonia could continue on this therapy during the study.
# (§2) Patients were evaluated clinically at the screening visit, and on Days 1, 3, 7, 10, and 14. The hepatitis patients were additionally evaluated on Days 21 and 42. The blood chemistry and urinalysis tests were repeated additionally on Days 2 and 5.
# (§3) Clinical evaluations consisted of a physical exam, which included a test of lower extremity muscle strength, medical history, systems review, grading of non-laboratory signs and symptoms of toxicity, and listing of concomitant medications. Additionally, at visits with clinical evaluations after Day 1, any adverse experiences were recorded.
# The Day 3 safety profile consisted of the clinical evaluation, hematology, serum biochemistry, urinalysis, stool guaiac tests and plasma samples for peak and trough levels of FIAU and its major metabolite FAU. On Day 7 patients underwent clinical evaluation, an ECG, peak and trough serum samples, T cell profile, and hematology, serum biochemistry, urinalysis, and stool guaiac tests. A clinical evaluation, hematology, serum biochemistry, and urinalysis tests were done on Day 10. These were repeated for the Day 14 evaluation with the addition of an ECG, T cell profile, stool guaiac, and peak and trough plasma samples. The post-treatment evaluations of the hepatitis patients on Days 21 and 42 consisted of a clinical evaluation and serum biochemistry tests.
# [2] = Stability in an acid environment; format: physicochemical; settings: such as is found in the human stomach
# CMV = settings: read-out: in vitro ED90; cited from earlier work
# [3] = Oral FIAU in immune-competent patients with chronic hepatitis B: adverse experiences; format: in vivo, human
# Description: Consecutively qualifying patients will be used for each dose group and patients will not be assigned to dose based on either disease severity or expected tolerance. Tolerance will be determined with antiemetic therapy given concomitantly as necessary should a patient experience sustained nausea or two or more episodes of vomiting. Compazine, 10 mg p.o. Q6H or 25 mg p.r. Q12H will be used.
# The side effects that will be monitored will include gastrointestinal irritation, bone marrow suppression, neurologic, and muscular toxicity.
# clinical = experiment: clinical
# Description: Tolerance to the oral formulation of FIAU was evaluated in relatively healthy HIV-infected patients with Karnofsky performance scores ≥80 and ≥200 CD4 cells/mm^3. Sequential cohorts of ten patients were evaluated in an open and uncontrolled study design. […] Tolerance was determined with concurrent anti-emetic therapy (prochlorperazine or metoclopramide hydrochloride) as necessary for each patient.
# as §1
# Although not formally randomized, qualified patients were to be consecutively enrolled without regard to their disease severity, expected tolerance, or potential benefit of the dose being evaluated. Tolerance to a dose was defined as seven or more of the ten patients in a cohort individually meeting predefined tolerance criteria including successful completion of therapy and limits on changes in particular signs, symptoms and laboratory tests. Tolerance was determined with concurrent anti-emetic therapy for those patients requiring it. Criteria and regimens for such therapy were predefined.
# Weight loss was restricted to less than 10% in the past three months and serum CPK was required to be within the normal range.
# as §2, §3
# At the screening visit a chest x-ray, electrocardiogram (ECG), HIV test, T cell profile (CD4 and CD8 counts), serum biochemistry, hematology, urinalysis and stool guaiac tests were obtained in addition to the clinical evaluation. Hematology tests consisted of hemoglobin, hematocrit, RBC, WBC and differential, platelet, reticulocyte count, MCV, MCHC and MCH. Urinalysis tests consisted of color, appearance, pH, specific gravity, bilirubin, protein, glucose, myoglobin, RBCs, WBCs, casts, crystals and bacteria. Serum biochemistry tests consisted of creatinine, uric acid, BUN, total bilirubin, AST, ALT, alkaline phosphatase, LDH, CPK, CPK-MB, glucose, total protein, albumin, globulin, calcium, phosphorus, potassium, sodium, chloride, bicarbonate and aldolase.
# The Baseline visit (Day 1) consisted of repeating the clinical evaluation, hematology, serum biochemistry, urinalysis, and stool guaiac tests, and T cell profile. Additionally at Baseline, archive plasma samples were taken. Plasma samples were taken two hours after each patient's first dose of FIAU (peak) and right before the second dose (trough). Thereafter, on Days 3, 7 and 14 additional peak and trough samples were obtained by taking the trough sample just before a patient took a dose of FIAU and the peak sample two hours later. These samples were analyzed by HPLC for levels of FIAU and FAU as low as 0.05 μg/ml for either compound.
# The Day 3 safety profile consisted of the clinical evaluation, hematology, serum biochemistry, urinalysis, stool guaiac tests and plasma samples for peak and trough levels of FIAU and its major metabolite FAU. On Day 7 patients underwent clinical evaluation, an ECG, peak and trough serum samples, T cell profile, and hematology, serum biochemistry, urinalysis, and stool guaiac tests. A clinical evaluation, hematology, serum biochemistry, and urinalysis tests were done on Day 10.
# [4] = 1.0 mg/kg-day, non-hepatitis patients, p>0.07
# [5] = 1.0 mg/kg-day, ten non-hepatitis patients
smiles,measurement,setting,value
"O=c1[nH]c(=O)n([C@@H]2O[C@H](CO)[C@@H](O)[C@@H]2F)cc1I [FIAU, 1-(2'-deoxy-2'-fluoro-β-D-arabinofuranosyl)-5-iodouracil]",tolerance compared with 1.0 or 0.5 mg/kg-day,[1]; 0.1 mg/kg-day,much better tolerated
same,incidents of fatigue,"[1]; 0.1 mg/kg-day, four patients",only one incident of fatigue
same,tolerance of oral FIAU,"[1]; 1.0 mg/kg-day TID 14 days, six hepatitis patients",completed the 14 days of therapy with no untoward effects; also recorded: relatively well-tolerated; also recorded: All six patients completed the full course of therapy
same,"increase in AST and ALT values, Patient 406","[1]; 1.0 mg/kg-day, 28 days after completion of therapy",~5 fold
same,myositis,"[1]; 1.0 mg/kg-day, Patient 101, after dosing was completed",severe myositis; also recorded: One patient experienced an episode of myositis
same,average drop in lymphocytes,"[1]; 1.0 mg/kg-day, hepatitis patients",750 cells/mm^3
same,decrease in average CD4 count,"[1]; 1.0 mg/kg-day, hepatitis patients, Baseline to Day 14, p=0.03",40%
same,average CD4 count at Day 14,"[1]; 1.0 mg/kg-day, hepatitis patients, 691 at Baseline",415
same,average WBC at end of therapy,"[1]; 1.0 mg/kg-day, hepatitis patients, baseline average 4,690, p=0.0085","3,430"
same,average drop in neutrophils,"[1]; 1.0 mg/kg-day, hepatitis patients, not significant",approximately 300 cell/mm^3
same,decrease in lymphocytes,"[1]; 1.0 mg/kg-day, hepatitis patients, p=0.00125",39%
same,significance of increases in liver enzymes during therapy,"[1]; 1.0 mg/kg-day, hepatitis patients, p>0.1",increases in liver enzymes were not
same,patients with mild to moderate nausea,"[1]; 1.0 mg/kg-day, six hepatitis patients",Four patients reported mild to moderate nausea
same,"change of AST and ALT values, Patient 401","[1]; 1.0 mg/kg-day, very end of therapy, back below Baseline after a month of follow-up",doubling
same,toxicity overall,"[1]; doses of 0.1 to 1.0 mg/kg-day, HIV-infected patients with chronic hepatitis B",have not produced unacceptable toxicity
same,incidence of fatigue,[1]; the other groups (1.0 and 0.5 mg/kg-day),40-50%
same,stability in an acid environment,[2],stable in an acid environment
same,EC90,CMV,~500 nM
same,days on which mild fatigue was experienced,"[3]; 0.05 mpk, patient 1C",Day 8
same,days on which mild fatigue was experienced,"[3]; 0.1 mpk, individual patients (footnotes a-d: 1A, 2A, 3A, 6A)","Days 3, 8, 14, 21, 28, and Week 5; also recorded: Days 7, 14, and 18"
same,days on which mild nausea was experienced,"[3]; 0.1 mpk, patient 6A","Days 3, 7, 14, and 21"
same,days on which mild fatigue was experienced,"[3]; 0.25 mpk, individual patients (footnotes e, g: 4B, 6B)","Days 14, 21, 28, Week 5, and Month 2"
same,days on which mild nausea was experienced,"[3]; 0.25 mpk, patient 5B",Day 3
same,tolerance of oral FIAU,"clinical; 1.0 mg/kg-day TID 14 days, HIV-infected patients (ten without chronic hepatitis B)",adequately tolerated
same,average AST value at end of therapy,"clinical; 1.0 mg/kg-day, non-hepatitis patients, baseline 23.4, p≤0.02",29.6
same,average ALT value at end of therapy,"clinical; 1.0 mg/kg-day, non-hepatitis patients, baseline 27.1, p≤0.02",42.3
same,average WBC count at end of therapy,"clinical; 1.0 mg/kg-day, non-hepatitis patients, baseline average 5,480, p=0.0746","4,920 cells/mm^3"
same,average loss of CD4 cells,"clinical; 1.0 mg/kg-day, non-hepatitis patients, non-significant",64 cells/mm^3
same,decrease in lymphocytes,clinical; [4],about 300 cells/mm^3
same,decrease in neutrophils,clinical; [4],about 300 cells/mm^3
same,patients requiring anti-emetic therapy,clinical; [5],four required anti-emetic therapy
same,patients with mild to moderate headache,clinical; [5],Five patients complained of mild to moderate headache
same,patients with mild to moderate nausea,clinical; [5],Eight patients experienced mild to moderate nausea
same,tolerance of oral FIAU,"clinical; 1.7 mg/kg-day, three non-hepatitis patients",not tolerated; also recorded: All three discontinued the study after two to eight days due to severe fatigue
same,MTD at 336 h,"clinical; human, in vivo, po, maximum tolerated dose of oral FIAU, HIV-infected population, TID for two weeks",≥ 1 mg/kg/day
